Source: patent US6455259B2, “Methods for detecting, selecting and cloning agents that degrade or promote degradation of DNA” (priority 1998, dated 2002)

Experiments:
E. coli strain MC1061 [1] = experiment: Cell viability after bleomycin treatment; type: cell-based; conditions: 10 μg/ml bleomycin, 60 minutes, 32 C, Luria Broth plus 0.2% glucose
Procedure: (§1) In this example, a T4 denA mutant phage is complemented with an antibiotic known to cause single strand breaks in DNA, bleomycin. In this example, the production of any viable progeny phage above the background will be evidence of complementation. E. coli strain MC1061, growing at 32∞ C in Luria Broth plus 0.2% glucose was treated for 60 minutes with 10 μg/ml of bleomycin, which was then removed by centrifuging the cells and re-suspending them in an equal volume of the same media. Under these treatment conditions, cell viability is reduced to about 40-50% of that at the beginning of the treatment. The cells are then allowed to grow for various amounts of time at 32∞ C. in the absence of bleomycin, at which times HU is added to 200 mM.

E. coli strain MC1061 [2] = experiment: Complementation of T4 denA mutant phage by bleomycin: progeny phage production; type: cell-based
Procedure: as §1
Phage mutant in both the denA and denB genes is added five minutes later. Unadsorbed input phage are eliminated by treating the infected cultures with anti-T4 sera added 15-20 minutes after infection. This anti-T4 sera treatment to eliminate unadsorbed input phage allows detection of a lower level of progeny phage production. However, the anti-T4 sera must be removed or it will also inactivate progeny phage. This was done by centrifuging the infected cultures 50 minutes after infection, washing the pellets with one-tenth volume of media, centrifuging again, re-suspending the culture in one volume of media and immediately causing lysis of the productive cells by the addition of chloroform.
Progeny phage production was assayed by standard methods. A control infection was also done on cells given no bleomycin treatment.

bleomycin
cell viability, relative to that at the beginning of the treatment (E. coli strain MC1061 [1]): 40-50%
factor increase of progeny titre over control (no Bleomycin) (E. coli strain MC1061 [2]; outgrowth 0 minutes): 1300
factor increase of progeny titre over control (no Bleomycin) (E. coli strain MC1061 [2]; outgrowth 20 minutes): 13000
factor increase of progeny titre over control (no Bleomycin) (E. coli strain MC1061 [2]; outgrowth 40 minutes): 24000
factor increase of progeny titre over control (no Bleomycin) (E. coli strain MC1061 [2]; outgrowth 60 minutes): 45000
